Values after ≈ are worked out from the molar mass of the structure shown.
Conditions: for aqueous solubility: pH 6.8

| Compound | MDR1-MDCK efflux ratio | intrinsic clearance, human liver microsomes | intrinsic clearance, rat liver microsomes | aqueous solubility | fraction unbound, human plasma | fraction unbound, rat plasma |
| --- | --- | --- | --- | --- | --- | --- |
| CCc1nc(CN2C(=O)COc3ccc(F)cc32)cs1 | 0.688 | 65.1 mL/min/kg | 1250 mL/min/kg | 20.9 µg/mL (≈ 71.5 µM) | – | – |
| CC(=O)NC1(c2ccc(F)cc2)CCN(Cc2ccc(OC3CCCC3)cc2)CC1 | – | 24.8 mL/min/kg | 346 mL/min/kg | 72.4 µg/mL (≈ 176 µM) | – | – |
| Cc1noc(NCc2c(C)nn(C)c2C)n1 | 1.34 | ≤ 4.74 mL/min/kg | ≤ 10.7 mL/min/kg | – | – | – |
| Cc1ccc2nc(CN(C)Cc3cccc(Cl)c3Cl)cc(=O)n2c1 | 0.617 | 633 mL/min/kg | 4770 mL/min/kg | – | – | – |
| c1cnc(NCc2cnc3ccsc3c2)nc1 | 0.589 | 12.5 mL/min/kg | 52.9 mL/min/kg | – | – | – |
| Fc1cccc(Cl)c1CNCCc1c[nH]c2ccccc12 | 0.457 | 298 mL/min/kg | 2150 mL/min/kg | 48.3 µg/mL (≈ 159 µM) | – | – |
| O=C(Nc1nnc(SCc2ccc(F)cc2)s1)C1CCC1 | 0.689 | 52 mL/min/kg | 1650 mL/min/kg | – | – | – |
| c1ccc(-c2ccc(CN3CCCCCCC3)cc2)cc1 | 0.675 | 39.5 mL/min/kg | 1530 mL/min/kg | 9.5 µg/mL (≈ 34 µM) | 0.00243 | – |
| CCN1CCN(S(=O)(=O)c2c[nH]c(C(C)C)n2)c2ccccc21 | 20.2 | 258 mL/min/kg | 248 mL/min/kg | – | – | – |
| CCC1=C(C)CN(C(=O)NCCc2ccc(S(=O)(=O)NC(=O)N[C@H]3CC[C@H](C)CC3)cc2)C1=O | 68.6 | 19.2 mL/min/kg | 305 mL/min/kg | – | 0.00066 | 0.00023 |
| Cc1c(Nc2ccc3nccnc3n2)cnn1C | – | – | – | 31.7 µg/mL (≈ 132 µM) | – | – |
| CC(C)CCNC(=O)CSc1nc2ccccc2[nH]1 | 3.98 | 114 mL/min/kg | 1110 mL/min/kg | – | – | – |
| Cc1ccnc2[nH]c(CSCc3ccccc3)nc12 | – | 84.4 mL/min/kg | 647 mL/min/kg | – | – | – |
| Cc1csc(-c2nnc(Nc3ccc(Oc4ncccc4-c4ccnc(N)n4)cc3)c3ccccc23)c1 | 0.918 | – | – | 0.76 µg/mL (≈ 1.51 µM) | – | – |
| N#Cc1cccc(-c2ccc3[nH]ccc3c2)n1 | 0.528 | 299 mL/min/kg | 657 mL/min/kg | 3.65 µg/mL (≈ 16.6 µM) | – | – |
| CCc1cc2c(=O)[nH]c(-c3ccccn3)nc2s1 | – | – | – | 49 µg/mL (≈ 190 µM) | – | – |
| CCc1nnc(NC(=O)Cc2cccc(F)c2)s1 | 0.912 | 7.42 mL/min/kg | 76.3 mL/min/kg | 12.2 µg/mL (≈ 46 µM) | – | – |
| Cc1c[nH]c2nccc(Oc3c(F)cc(Nc4cc(Cl)nc(N)n4)cc3F)c12 | 2.53 | 14.3 mL/min/kg | 173 mL/min/kg | – | 0.0006 | 0.00206 |
| O=C1Oc2nc3cc4c(cc3cc2CN1CCN1CCOCC1)OCCO4 | 3.87 | ≤ 4.74 mL/min/kg | ≤ 10.7 mL/min/kg | 80.5 µg/mL (≈ 217 µM) | – | – |
| O=C(CCOc1ccccc1)N1CCCC(c2n[nH]cc2-c2ccc(Cl)cc2)C1 (centres undefined) | 4.26 | – | – | 0.8 µg/mL (≈ 1.95 µM) | – | – |
| CCC(=O)NCCNC(=O)c1cc(-c2ccccc2)nc2ccccc12 | 15.1 | 13.3 mL/min/kg | 80.3 mL/min/kg | 18.7 µg/mL (≈ 53.8 µM) | – | – |
| Cc1noc(C)c1C(=O)N1CCCN(c2ccc(F)cc2)CC1 | 1.8 | 111 mL/min/kg | 566 mL/min/kg | 55.6 µg/mL (≈ 175 µM) | – | – |
| NC1CCC(C(=O)N2CCC(c3c[nH]c4ncccc34)CC2)C1 (centres undefined) | 2.66 | ≤ 4.74 mL/min/kg | – | – | 0.827 | – |
| COc1cc(Nc2ncc3c(n2)-c2ccc(Cl)cc2C(c2c(F)cccc2OC)=NC3)ccc1C(=O)O | 13.5 | ≤ 4.74 mL/min/kg | 20.5 mL/min/kg | 73.1 µg/mL (≈ 141 µM) | – | – |
| CCCn1cnnc1Cn1ccnc1-c1ccc2occc2c1 | 93.8 | ≤ 4.74 mL/min/kg | 16.6 mL/min/kg | 28.6 µg/mL (≈ 93.1 µM) | – | – |
| CN(C)c1cccc(C2CCN(c3ncccn3)CC2)n1 | – | 94.4 mL/min/kg | 2250 mL/min/kg | 16.9 µg/mL (≈ 59.5 µM) | – | – |
| Cc1ccc(-c2nc(CC(=O)NCCC(C)C)cs2)cc1 | 0.529 | 464 mL/min/kg | 6110 mL/min/kg | 8.17 µg/mL (≈ 27 µM) | – | – |

Other lines, results leading:

| MDR1-MDCK efflux ratio | intrinsic clearance, human liver microsomes | intrinsic clearance, rat liver microsomes | aqueous solubility | fraction unbound, human plasma | fraction unbound, rat plasma | Compound |
| --- | --- | --- | --- | --- | --- | --- |
| 1.82 | 273 mL/min/kg | 2040 mL/min/kg | – | – | – | CC(C)Cc1nn(C)c(=O)c2c(SCCCO)n(Cc3cccc4ccccc34)cc12 |
| – | 194 mL/min/kg | 604 mL/min/kg | – | – | – | O=C(Nc1ccc(C2CCCCC2)cc1)c1ccc(S(=O)(=O)NCc2cccnc2)cc1 |
| 0.656 | 20.2 mL/min/kg | 263 mL/min/kg | 69.4 µg/mL (≈ 217 µM) | – | – | COc1ccc(F)c(CN2CCC(Cc3noc(C)n3)CC2)c1 |
| – | 5.9 mL/min/kg | 98 mL/min/kg | 52.8 µg/mL (≈ 163 µM) | – | – | CS(=O)(=O)N1CCC(Nc2ccc3ccc(F)cc3n2)CC1 |
| – | – | – | 0.3 µg/mL (≈ 0.921 µM) | – | – | Cn1c(NC(=O)C2CC2c2ccc(Cl)cc2)nc2ccccc21 (centres undefined) |
| – | 156 mL/min/kg | 969 mL/min/kg | 34.8 µg/mL (≈ 99.7 µM) | – | – | O=C(Nc1cc(Cl)ccc1Cl)c1cccc(N2CCCC2=O)c1 |
| 9.93 | – | – | – | – | – | O=C1CCCN1c1ccc(S(=O)(=O)Nc2cccc(-c3nnc4n3CCC4)c2)cc1 |
| 1.68 | 37.6 mL/min/kg | 394 mL/min/kg | 51.6 µg/mL (≈ 156 µM) | – | – | CCOC(=O)N1CCN(C(=O)Nc2cccc3c2CCCC3)CC1 |
| 0.795 | 21.5 mL/min/kg | 264 mL/min/kg | 46.2 µg/mL (≈ 146 µM) | – | – | CC(=O)N1CCC(CCNc2ccc3ccc(F)cc3n2)CC1 |
| – | – | – | 28.6 µg/mL (≈ 105 µM) | – | – | Cc1ncc(CN(C)c2nnc(C)c(C)c2C#N)s1 |
| 1.55 | ≤ 4.74 mL/min/kg | 58.2 mL/min/kg | – | – | – | COc1cc(OC)cc(N2CCC(NCC3(C)CCOCC3)CC2)c1 |
| 0.809 | 14 mL/min/kg | 34.4 mL/min/kg | 26 µg/mL (≈ 128 µM) | – | – | C#CCNC(=O)c1ccc2c(c1)OCO2 |
| 0.625 | 26.3 mL/min/kg | 1660 mL/min/kg | 54.1 µg/mL (≈ 157 µM) | – | – | CN(Cc1c(F)cccc1Cl)C(=O)c1ccc(-n2ccnc2)nc1 |
| 2.34 | ≤ 4.74 mL/min/kg | 47.2 mL/min/kg | – | – | – | Cc1cnn(CC(=O)NCCCn2cc(Cl)cn2)c1 |
| 3.94 | 32.1 mL/min/kg | 391 mL/min/kg | 3.8 µg/mL (≈ 8.97 µM) | – | – | C=CC(=O)Nc1cccc(Nc2nc(Nc3ccc(OCCOC)cc3)ncc2F)c1 |

— the Biogen ADME set (Fang et al. 2023)
